# Results from US9023398B2, “Method for improving the aqueous solubility of poorly-soluble substances” (Kabushiki Kaisha Sangi, priority 2009, dated 2015).
# What was measured:
# [1] = Dissolution test of poorly-soluble substances using 2nd fluid for disintegration test (pH 6.8) of the Japanese Pharmacopoeia; format: physicochemical
# [2] = Dissolution test of poorly-soluble substances using distilled water; format: physicochemical
# [3] = 2nd fluid for disintegration test, elution time 3 min
# [4] = 2nd fluid for disintegration test, elution time 360 min
# [5] = after dissolution test for 360 minutes, Second disintegration test medium (pH 6.8), 37±0.5° C.
# [6] = after dissolution test for 360 minutes, distilled water, 37±0.5° C.
# [7] = 2nd fluid for disintegration test, elution time 1 min
# [8] = 2nd fluid for disintegration test, elution time 10 min
# [9] = 2nd fluid for disintegration test, elution time 30 min
# [10] = 2nd fluid for disintegration test, elution time 60 min
# [11] = 2nd fluid for disintegration test, elution time 180 min
compound,measurement,setting,value
"Nc1ncnc2nc[nH]c12 [compound 45, Adenine]",Dissolved amount,"[1]; Adenine, 2nd fluid for disintegration test, elution time 3 min",1752.2 µg/mL
same,Dissolved amount,"[1]; Adenine, 2nd fluid for disintegration test, elution time 10 min",2028.0 µg/mL
same,Dissolved amount,"[1]; Adenine, 2nd fluid for disintegration test, elution time 30 min",2001.9 µg/mL
same,Dissolved amount,"[1]; Adenine, 2nd fluid for disintegration test, elution time 120 min",2001.4 µg/mL
same,Dissolved amount,"[1]; Adenine, 2nd fluid for disintegration test, elution time 360 min",1876.8 µg/mL
same,Dissolved amount,"[2]; Adenine, water, elution time 3 min",1478.0 µg/mL
same,Dissolved amount,"[2]; Adenine, water, elution time 10 min",1557.3 µg/mL
same,Dissolved amount,"[2]; Adenine, water, elution time 30 min",1646.6 µg/mL
same,Dissolved amount,"[2]; Adenine, water, elution time 360 min",1696.4 µg/mL
"CN/C(=N/CCSCc1nc[nH]c1C)NC#N [compound 19, Cimetidine]",Dissolved amount,[1]; [3],8676.7 µg/mL
same,Dissolved amount,"[1]; 2nd fluid for disintegration test, elution time 120 min",9475.2 µg/mL
same,Dissolved amount,[1]; [4],8810.0 µg/mL
same,Dissolved amount,"[2]; Dissolution test using water, elution time 10 min",8160.2 µg/mL
same,Dissolved amount,"[2]; Dissolution test using water, elution time 30 min",7564.5 µg/mL
same,Dissolved amount,"[2]; Dissolution test using water, elution time 120 min",7898.3 µg/mL
same,Dissolved amount,"[2]; Dissolution test using water, elution time 360 min",7166.4 µg/mL
"CCC1(c2ccccc2)C(=O)NCNC1=O [compound 14, Primidone]",Dissolved amount,[1]; [5],335.2 µg/mL
same,Dissolved amount,[2]; [6],180.3 µg/mL
"CC1(C)[C@@H](O[C@H]2O[C@H](C(=O)O)[C@@H](O)[C@H](O)[C@H]2O[C@@H]2O[C@H](C(=O)O)[C@@H](O)[C@H](O)[C@H]2O)CC[C@]2(C)[C@H]3C(=O)C=C4[C@@H]5C[C@@](C)(C(=O)O)CC[C@]5(C)CC[C@@]4(C)[C@]3(C)CC[C@@H]12 [Comparative Example 16, Ammonium Glycyrrhizinate]",Dissolved amount,[1]; [7],5113.7 µg/mL
same,Dissolved amount,[1]; [3],7012.3 µg/mL
same,Dissolved amount,[1]; [8],9096.3 µg/mL
same,Dissolved amount,"[2]; water, elution time 1 min",2668.0 µg/mL
same,Dissolved amount,"[2]; water, elution time 3 min",4621.4 µg/mL
same,Dissolved amount,"[2]; water, elution time 30 min",6792.2 µg/mL
same,Dissolved amount,"[2]; water, elution time 60 min",7374.5 µg/mL
same,Dissolved amount,"[2]; water, elution time 180 min",8826.1 µg/mL
same,Dissolved amount,"[2]; water, elution time 360 min",8948.1 µg/mL
"Oc1ncnc2[nH]ncc12 [compound 39, Allopurinol]",Dissolved amount,"[1]; Allopurinol, 2nd fluid for disintegration test, elution time 3 min",565.4 µg/mL
same,Dissolved amount,"[1]; Allopurinol, 2nd fluid for disintegration test, elution time 10 min",672.6 µg/mL
same,Dissolved amount,"[1]; Allopurinol, 2nd fluid for disintegration test, elution time 30 min",725.7 µg/mL
same,Dissolved amount,"[1]; Allopurinol, 2nd fluid for disintegration test, elution time 120 min",722.8 µg/mL
same,Dissolved amount,"[1]; Allopurinol, 2nd fluid for disintegration test, elution time 360 min",696.1 µg/mL
same,Dissolved amount,"[2]; Allopurinol, water, elution time 3 min",578.2 µg/mL
same,Dissolved amount,"[2]; Allopurinol, water, elution time 10 min",679.4 µg/mL
same,Dissolved amount,"[2]; Allopurinol, water, elution time 30 min",773.9 µg/mL
same,Dissolved amount,"[2]; Allopurinol, water, elution time 120 min",741.5 µg/mL
same,Dissolved amount,"[2]; Allopurinol, water, elution time 360 min",712.5 µg/mL
"COc1ccc(Cl)cc1C(=O)NCCc1ccc(S(=O)(=O)NC(=O)NC2CCCCC2)cc1 [compound 11, Glibenclamide]",Dissolved amount,[1]; [5],8.0 µg/mL
same,Dissolved amount,[2]; [6],6.4 µg/mL
"CC(C)NCC(O)COc1cccc2[nH]ccc12 (centres unmarked) [compound 42, Pindolol]",Dissolved amount,"[1]; Pindolol, 2nd fluid for disintegration test, elution time 3 min",1394.9 µg/mL
same,Dissolved amount,"[1]; Pindolol, 2nd fluid for disintegration test, elution time 10 min",2837.9 µg/mL
same,Dissolved amount,"[1]; Pindolol, 2nd fluid for disintegration test, elution time 30 min",3212.1 µg/mL
same,Dissolved amount,"[1]; Pindolol, 2nd fluid for disintegration test, elution time 120 min",3624.7 µg/mL
same,Dissolved amount,"[2]; Pindolol, water, elution time 3 min",53.1 µg/mL
same,Dissolved amount,"[2]; Pindolol, water, elution time 10 min",71.1 µg/mL
same,Dissolved amount,"[2]; Pindolol, water, elution time 30 min",77.8 µg/mL
same,Dissolved amount,"[2]; Pindolol, water, elution time 120 min",93.5 µg/mL
same,Dissolved amount,"[2]; Pindolol, water, elution time 360 min",93.6 µg/mL
"Cn1c(=O)c2[nH]cnc2n(C)c1=O [Comparative Example 15, Theophylline]",Dissolved amount,[1]; [7],8133.8 µg/mL
same,Dissolved amount,[1]; [3],8635.7 µg/mL
same,Dissolved amount,[1]; [8],8596.0 µg/mL
same,Dissolved amount,[1]; [9],8929.7 µg/mL
same,Dissolved amount,[1]; [10],9096.5 µg/mL
same,Dissolved amount,[1]; [11],8906.5 µg/mL
same,Dissolved amount,[1]; [4],8906.2 µg/mL
same,Dissolved amount,"[2]; water, elution time 1 min",7082.2 µg/mL
same,Dissolved amount,"[2]; water, elution time 3 min",7897.9 µg/mL
same,Dissolved amount,"[2]; water, elution time 10 min",8554.7 µg/mL
same,Dissolved amount,"[2]; water, elution time 30 min",8621.6 µg/mL
same,Dissolved amount,"[2]; water, elution time 60 min",8652.4 µg/mL
same,Dissolved amount,"[2]; water, elution time 180 min",8672.3 µg/mL
same,Dissolved amount,"[2]; water, elution time 360 min",8691.5 µg/mL
"CC(=O)Oc1ccccc1C(=O)O [Comparative Example 1-3, Aspirin]",Dissolved amount,[1]; [7],252.7 µg/mL
same,Dissolved amount,[1]; [3],1020.4 µg/mL
same,Dissolved amount,[1]; [8],5352.3 µg/mL
same,Dissolved amount,[1]; [9],5963.6 µg/mL
same,Dissolved amount,[1]; [11],6458.1 µg/mL
same,Dissolved amount,[1]; [4],8552.7 µg/mL
same,Dissolved amount,[1]; [5],6552.7 µg/mL
same,Dissolved amount,[2]; [6],3110.4 µg/mL
same,Dissolved amount,"[2]; water, elution time 1 min",1831.9 µg/mL
same,Dissolved amount,"[2]; water, elution time 3 min",2934.9 µg/mL
same,Dissolved amount,"[2]; water, elution time 10 min",2985.3 µg/mL
same,Dissolved amount,"[2]; water, elution time 60 min",3105.7 µg/mL
same,Dissolved amount,"[2]; water, elution time 180 min",3108.1 µg/mL
same,Dissolved amount,"[2]; water, elution time 360 min",3110.4 µg/mL
"NC(N)=Nc1nc(CSCCC(N)=NS(N)(=O)=O)cs1 [Comparative Example 17, Famotidine]",Dissolved amount,[1]; [7],1980.2 µg/mL
same,Dissolved amount,[1]; [3],2286.6 µg/mL
same,Dissolved amount,[1]; [8],2541.7 µg/mL
same,Dissolved amount,[1]; [9],2600.9 µg/mL
same,Dissolved amount,[1]; [10],2667.9 µg/mL
same,Dissolved amount,[1]; [4],2410.4 µg/mL
same,Dissolved amount,"[2]; water, elution time 1 min",1162.9 µg/mL
same,Dissolved amount,"[2]; water, elution time 3 min",1416.8 µg/mL
same,Dissolved amount,"[2]; water, elution time 10 min",1502.6 µg/mL
same,Dissolved amount,"[2]; water, elution time 30 min",1566.8 µg/mL
same,Dissolved amount,"[2]; water, elution time 60 min",1565.8 µg/mL
same,Dissolved amount,"[2]; water, elution time 180 min",1509.8 µg/mL
same,Dissolved amount,"[2]; water, elution time 360 min",1497.4 µg/mL
"COc1cc(Cc2cnc(N)nc2N)cc(OC)c1OC [compound 13, Trimethoprim]",Dissolved amount,[1]; [5],1321.9 µg/mL
same,Dissolved amount,[2]; [6],656.3 µg/mL
"Cc1ccc(S(=O)(=O)NC(=O)NN2CC3CCCC3C2)cc1 (centres unmarked) [compound 32, Gliclazide]",Dissolved amount,"[1]; Gliclazide, 2nd fluid for disintegration test, elution time 3 min",80.1 µg/mL
same,Dissolved amount,"[1]; Gliclazide, 2nd fluid for disintegration test, elution time 30 min",296.1 µg/mL
same,Dissolved amount,"[1]; Gliclazide, 2nd fluid for disintegration test, elution time 120 min",420.2 µg/mL
same,Dissolved amount,"[1]; Gliclazide, 2nd fluid for disintegration test, elution time 360 min",429.4 µg/mL
same,Dissolved amount,"[2]; Gliclazide, water, elution time 3 min",11.1 µg/mL
same,Dissolved amount,"[2]; Gliclazide, water, elution time 10 min",26.3 µg/mL
same,Dissolved amount,"[2]; Gliclazide, water, elution time 30 min",35.4 µg/mL
same,Dissolved amount,"[2]; Gliclazide, water, elution time 120 min",38.8 µg/mL
same,Dissolved amount,"[2]; Gliclazide, water, elution time 360 min",39.3 µg/mL
"O=C(CCCN1CCC(O)(c2ccc(Cl)cc2)CC1)c1ccc(F)cc1 [compound 46, Haloperidol]",Dissolved amount,"[1]; Haloperidol, 2nd fluid for disintegration test, elution time 3 min",23.9 µg/mL
same,Dissolved amount,"[1]; Haloperidol, 2nd fluid for disintegration test, elution time 10 min",35.6 µg/mL
same,Dissolved amount,"[1]; Haloperidol, 2nd fluid for disintegration test, elution time 120 min",50.1 µg/mL
same,Dissolved amount,"[1]; Haloperidol, 2nd fluid for disintegration test, elution time 360 min",48.9 µg/mL
same,Dissolved amount,"[2]; Haloperidol, water, elution time 3 min",8.2 µg/mL
same,Dissolved amount,"[2]; Haloperidol, water, elution time 10 min",10.0 µg/mL
same,Dissolved amount,"[2]; Haloperidol, water, elution time 30 min",11.3 µg/mL
same,Dissolved amount,"[2]; Haloperidol, water, elution time 360 min",13.1 µg/mL
"Nc1nc(N)c2nc(-c3ccccc3)c(N)nc2n1 [6-1, Triamterene]",Dissolved amount,[1]; [5],18.4 µg/mL
same,Dissolved amount,[2]; [6],21.3 µg/mL
"CCN(CC)CCNC(=O)c1cc(Cl)c(N)cc1OC [compound 33, Metoclopramide]",Dissolved amount,"[1]; Metoclopramide, 2nd fluid for disintegration test, elution time 3 min",12420.8 µg/mL
same,Dissolved amount,"[1]; Metoclopramide, 2nd fluid for disintegration test, elution time 30 min",13285.5 µg/mL
same,Dissolved amount,"[1]; Metoclopramide, 2nd fluid for disintegration test, elution time 360 min",13564.1 µg/mL
same,Dissolved amount,"[2]; Metoclopramide, water, elution time 3 min",6159.5 µg/mL
same,Dissolved amount,"[2]; Metoclopramide, water, elution time 10 min",5382.3 µg/mL
same,Dissolved amount,"[2]; Metoclopramide, water, elution time 30 min",5437.6 µg/mL
same,Dissolved amount,"[2]; Metoclopramide, water, elution time 120 min",5478.0 µg/mL
same,Dissolved amount,"[2]; Metoclopramide, water, elution time 360 min",5654.9 µg/mL
"CC(C)(Sc1cc(C(C)(C)C)c(O)c(C(C)(C)C)c1)Sc1cc(C(C)(C)C)c(O)c(C(C)(C)C)c1 [Comparative Example 5-3, Probucol]",Dissolved amount,[1]; [7],4.7 µg/mL
same,Dissolved amount,[1]; [3],14.9 µg/mL
same,Dissolved amount,[1]; [8],19.9 µg/mL
same,Dissolved amount,[1]; [9],21.2 µg/mL
same,Dissolved amount,[1]; [10],21.8 µg/mL
same,Dissolved amount,[1]; [11],26.8 µg/mL
same,Dissolved amount,[1]; [4],28.0 µg/mL
same,Dissolved amount,[1]; [5],28.0 µg/mL
same,Dissolved amount,[2]; [6],9.7 µg/mL
same,Dissolved amount,"[2]; water, elution time 1 min",0.7 µg/mL
same,Dissolved amount,"[2]; water, elution time 3 min",2.7 µg/mL
same,Dissolved amount,"[2]; water, elution time 10 min",3.7 µg/mL
same,Dissolved amount,"[2]; water, elution time 30 min",6.1 µg/mL
same,Dissolved amount,"[2]; water, elution time 60 min",7.6 µg/mL
same,Dissolved amount,"[2]; water, elution time 180 min",8.3 µg/mL
same,Dissolved amount,"[2]; water, elution time 360 min",9.7 µg/mL
"COc1ccc2[nH]c([S+]([O-])Cc3ncc(C)c(OC)c3C)nc2c1 (centres unmarked) [4-1, Omeprazole]",Dissolved amount,[1]; [5],169.9 µg/mL
same,Dissolved amount,[2]; [6],141.6 µg/mL
"COc1ccccc1OCCNCC(O)COc1cccc2[nH]c3ccccc3c12 (centres unmarked) [compound 49, Carvedilol]",Dissolved amount,"[1]; Carvedilol, 2nd fluid for disintegration test, elution time 3 min",13.9 µg/mL
same,Dissolved amount,"[1]; Carvedilol, 2nd fluid for disintegration test, elution time 10 min",26.3 µg/mL
same,Dissolved amount,"[1]; Carvedilol, 2nd fluid for disintegration test, elution time 30 min",48.6 µg/mL
same,Dissolved amount,"[1]; Carvedilol, 2nd fluid for disintegration test, elution time 120 min",44.1 µg/mL
same,Dissolved amount,"[1]; Carvedilol, 2nd fluid for disintegration test, elution time 360 min",45.1 µg/mL
same,Dissolved amount,"[2]; Carvedilol, water, elution time 3 min",5.2 µg/mL
same,Dissolved amount,"[2]; Carvedilol, water, elution time 10 min",8.3 µg/mL
same,Dissolved amount,"[2]; Carvedilol, water, elution time 30 min",10.0 µg/mL
same,Dissolved amount,"[2]; Carvedilol, water, elution time 120 min",15.0 µg/mL
same,Dissolved amount,"[2]; Carvedilol, water, elution time 360 min",16.0 µg/mL
